From US7081476B2, “Tocopherol enriched compositions for reducing IL6 levels” (Galileo Pharmaceuticals, Inc., priority 2001, dated 2006)
“And” between values parts separate entries of the source, which are not always exact repeats. Identical values can stand only once. “Also recorded” adds a separate entry of the source.

What was measured:
[1] = test system: expression of ELAM; assay: Cell-ELAM (E-selectin) assay in LPS/IL-1β stimulated endothelial cells; format: cell-based; settings: for ELAM production (in words): activated endothelial cells
Experimental: Cell-ELAM Assay. Endothelial-Leukocyte Adhesion Molecule (ELAM), also known as E-selectin, is expressed on the surface of endothelial cells. In this assay, lipopolysaccharide (LPS) and IL-1β are used to stimulate the expression of ELAM; test agents are tested for their abilities to reduce this expression, in accordance with studies showing that reduction of leukocyte adhesion to endothelial cell surface is associated with decreased cellular damage (e.g., Takada, M., Et al., Transplantation 64: 1520–25, 1997; Steinberg, J. B., et al., J. Heart Lung Trans. 13:306–313, 1994).
Endothelial cells may be selected from any of a number of sources and cultured according to methods known in the art; including, for example, coronary artery endothelial cells, human brain microvascular endothelial cells (HBMEC; Hess, D. C., et al., Neurosci. Lett. 213(1): 37–40, 1996), or lung endothelial cells. Cells are conveniently cultured in 96-well plates. Cells are stimulated by adding a solution to each well containing 10 μg/ml LPS and 100 pg/ml IL-1β for 6 hours in the presence of test agent (specific concentrations and time may be adjusted depending on the cell type). Treatment buffer is removed and replaced with pre-warmed Fixing Solution® (100 μl/well) for 25 minutes at room temperature. Cells are then washed 3×, then incubated with Blocking Buffer (PBS+2% FBS) for 25 minutes at room temperature. Blocking Buffer containing Monoclonal E-Selectin Antibody (1:750, Sigma Catalog #S-9555) is added to each well. Plates are sealed and stored at 4° overnight. Plates are washed 4× with 160 μL Blocking Buffer per well. Second Antibody-HRP diluted 1:5000 in Blocking Buffer is then added (100 μL/well), and plates are incubated at room temperature (protected from light) for two hours. Plates are then washed 4× with Blocking Buffer before addition of 100 μL of ABTS Substrate solution at room temperature (Zymed, Catalog #00–2024). Wells are allowed to develop for 35 minutes, before measurement at 402 nm in a Fluoroskan® Reader with shake program for 10 seconds. Positive results are recorded as a decrease in ELAM concentration in tested wells, as compared to control wells.

[2] = test system: CRP production in human Hep3B cells; assay: Human Hep3B cells CRP assay (IL-1β, IL-6 and dexamethasone stimulated, CRP ELISA); format: cell-based; settings: for reducing CRP production/levels (in words): Hep3B cells stimulated with IL-1B, IL-6 and dexamethasone
Excerpt: A. Human Hep3B Cells—CRP assay. Hep3B Cell Line is obtained from the American Type Culture Collection (ATCC Catalog No. HB-8064). The Hep3B cell line was derived from liver tissue of […]. The cells are epithelial in morphology and produce tumors in nude mice. The cells produce α-fetoprotein, hepatitis B surface antigen, albumin, α-2-macroglobulin, α-1-antitrypsin, transferrin, plasminogen, complement C3 and β-lipoprotein (Knowles B B, et al., Science, 1980, 209:497–499). This cell line has been widely used to study hepatocyte cytokine and acute phase protein release (e.g., Damtew B, et al., 1993, J Immunol 150:4001–4007).
HEP3B cells are grown in Minimum Essential Medium (MEM; GIBCO) supplemented with 10% Fetal Bovine Serum (FBS; Hyclone), 1× Penicillin/Streptomycin (GIBCO, Cat #. 15140-122) and 0.1 mM non-essential amino acids (GIBCO, Catalog No. 11140-050). Cells are thawed and transferred to warm medium according to standard methods known in the art.
Cells are incubated in flasks at 37° C. with 5% CO2 in an air atmosphere incubator. HEP3B growth media is changed every 2 days until the cells reach 70–80% confluence (approx. 3–4 days). For assay, the cells are transferred to 96-well plates, seeded at 5000 cells per well in culture media, and left to grow for 7 days in a 37° C. incubator (air supplemented with 5% CO2). Media is replaced daily until assay.
Test compounds are diluted into “Stimulus Buffer” (MEM medium containing 0.1 mM non-essential amino acids, 1× penicillin/streptomycin, 10% FBS with 10 ng/ml IL-1β, 20 ng/ml IL-6 and 1 μM dexamethasone. Media is removed from the cells and is replaced with 200 μl of test dilution. Cells are returned to the incubator for three days at 37° C. CRP ELISA is then performed on supernatant from the cells, as described below.
Costar EIA/RIA plates are coated with rabbit anti-human CRP (DAKO) diluted 1:4000 in carbonate buffer (100 μl/well) for 45 minutes at 37° C. Plates are then washed 5× with CRP washing buffer (50 mM Tris-HCI, 0.3M NaCl, […], pH 8.0) using an automatic plate washer. Plates may be dried, covered and refrigerated until use. Supernatant (100 μl) is removed from each well of the test plates and added to the corresponding well of a precoated ELISA plate.
100 μl HRP-conjugated rabbit anti-human CRP (DAKO) diluted 1:500 (in CRP wash buffer) is added to each well, followed by incubation for 30 minutes at 37° C. […] Finally, 50 μl of 1M H2SO4 is added to each well and absorbance at 450 nm is immediately measured in a microtiter spectrophotometer.
CRP measured as above is normalized to cell count per well, using a cell viability assay, such as the Cell Tracker Green assay. […] Plates are immediately read using a Fluoroskan® flourometer with a 485 excitation/538 emission filter pair.

[3] = test system: inflammation secondary to exposure to arachidonic acid; assay: Arachidonic acid mouse ear inflammation model; format: in vivo; settings: topical to left ear, CD-1 mice, one hour after treatment
Experimental: This assay measures the ability of test compounds to prevent or reduce inflammation secondary to oxazolone or arachidonic acid.
A. Arachidonic acid. Albino male CD-1 mice, 7–9 weeks old were used in this test. A 20% (w/v) arachidonic acid solution in acetone is prepared. Twenty microliters of the arachidonic acid solution is applied to the dorsal left ear of the mouse. Immediately thereafter, test compounds (20 μL in 70% ethanol/30% propylene glycol) are applied to the left ear. The untreated right ears served as control. Mice are sacrificed by CO2 inhalation, one hour after treatment. The left and right ears are removed and 7 mm punch biopsies taken from each. The punch biopsies are weighed, and the differences calculated. […] Other non-alpha-tocopherol enriched tocopherol compositions can be tested for their ability to reduce inflammation in this model.

[4] = test system: IL-6 present in edematous fluid; assay: Carrageenan-induced rat paw edema assay, IL-6 in edematous fluid; format: in vivo; settings: rats

Row | Compound | ELAM production (in words) [1] | activity in ELAM assay ([1]; at 1000 micromolar) | reducing CRP production/levels (in words) [2] | EC50 ([1]; endothelial cells, LPS and IL-1β, read-out: EC50 reduce the expression of ELAM) | reducing CRP levels ([2]; at about 3 to about 10 micromolar, Hep3B cells) | reduce inflammation secondary to arachidonic acid (ear punch weight difference) [3] | IL-6 levels in the edematous fluid (in words) ([4]; 10–100 mg/kg oral pretreatment over 3 days) | reduction in IL-6 present in edematous fluid ([4]; 3 days, 10–100 mg/kg/day oral pre-treatment, p<0.001)
1 | Cc1c(C)c2c(c(C)c1O)CC[C@@](C)(CCC[C@H](C)CCC[C@H](C)CCCC(C)C)O2 (relative stereo) [alpha-tocopherol, [2R-2R*(4R*,8R*)]-3,4-dihydro-2,5,7,8-tetramethyl-2-(4,8,12-trimethyltridecyl)-2H-1-benzopyran-6-ol, reference compound] | not | not active | – | – | – | – | – | –
2 | Cc1cc(O)cc2c1O[C@](C)(CCC[C@H](C)CCC[C@H](C)CCCC(C)C)CC2 (relative stereo) [delta-tocopherol, [2R-[2R*(4R*,8R*)]]-3,4-dihydro-2,8-dimethyl-2-(4,8,12-trimethyltridecyl)-2H-1-benzo-pyran-6-ol] | decreased | – | effective; also recorded: able to reduce | 300 to 1000 µM and 600 µM | – | – | – | –
3 | Cc1cc(O)c(C)c2c1OC(C)(CCCC(C)CCCC(C)CCCC(C)C)CC2 (stereo not drawn) [beta-tocopherol, 3,4-dihydro-2,5,8-trimethyl-2-(4,8,12-trimethyltridecyl)-2H-1-benzopyran-6-ol] | decreased | – | effective; also recorded: able to reduce | – | about 50% | – | – | –
4 | Cc1c(O)cc2c(c1C)OC(C)(CCCC(C)CCCC(C)CCCC(C)C)CC2 (stereo not shown) [gamma-tocopherol, 3,4-dihydro-2,7,8-trimethyl-2-(4,8,12-trimethyltridecyl)-2H-1-benzyopyran-6-ol] | decreased | – | effective; also recorded: able to reduce | – | – | able to reduce inflammation | significantly reduced | 42
